Test [1] addresses T1, CaCHS1p (chitin synthase of Candida albicans) (Candida albicans, UniProt P23316). Briefly: Chitin synthase inhibition assay (WGA capture / WGA-HRP detection of chitin synthesized in vitro). It is filed as biochemical. To be noted: inhibitor added over a range of concentrations, to a maximal concentration of 1 mM; FIG. 3. From the text: Preparation of CaCHS1p Membranes: In this example, chitin synthase was obtained from the S. cerevisiae strain 68-11-2C, transformed with the plasmid pJA16 (Bulawa et al., 1990, Proc. Natl. Acad. Sci. USA, 87:7424-7428 and Au-Young et al., 1990, Mol. Micro. 4:197-207). In strain 68-11-2C, the S. cerevisiae genes encoding chitin synthases 1 and 2 (CHS1 and CHS2, respectively) were genetically disrupted, rendering the strain deficient in production of these enzymes. The plasmid pJA16 encodes the chitin synthase gene of Candida albicans, and provides the only significant source of chitin in this assay.
Generally, the strain 68-1-2C/pJA16 is maintained on a supplemented SD medium. In this example, the cells were grown in 1 liter of SD medium for 48 hrs at 30° C. To provide good aeration, the culture was divided into two 500 ml cultures and grown in 2-liter flasks until the culture reached the stationary phase (i.e., until the OD600 of the culture reached 1.2-1.4). […] The cell walls then were broken by vortexing aliquots (2 ml) of the resuspended cells for 2 minutes with 3 ml of glass beads, according to conventional protocols. The cell extracts then were centrifuged for 5 minutes at 1,000×g, and the resulting supernatant was stored at -80° C. until it was used in the chitin synthase reactions described below. Frozen CaCHS1p membranes can be thawed at 30° C. […]

Test [2] addresses T1, CaCHS1p (chitin synthase of Candida albicans). The conditions noted are these: known relative potency, Nikkomycin Z versus Asperfuran; cited from earlier work.

T1 sequence (P23316 whole entry): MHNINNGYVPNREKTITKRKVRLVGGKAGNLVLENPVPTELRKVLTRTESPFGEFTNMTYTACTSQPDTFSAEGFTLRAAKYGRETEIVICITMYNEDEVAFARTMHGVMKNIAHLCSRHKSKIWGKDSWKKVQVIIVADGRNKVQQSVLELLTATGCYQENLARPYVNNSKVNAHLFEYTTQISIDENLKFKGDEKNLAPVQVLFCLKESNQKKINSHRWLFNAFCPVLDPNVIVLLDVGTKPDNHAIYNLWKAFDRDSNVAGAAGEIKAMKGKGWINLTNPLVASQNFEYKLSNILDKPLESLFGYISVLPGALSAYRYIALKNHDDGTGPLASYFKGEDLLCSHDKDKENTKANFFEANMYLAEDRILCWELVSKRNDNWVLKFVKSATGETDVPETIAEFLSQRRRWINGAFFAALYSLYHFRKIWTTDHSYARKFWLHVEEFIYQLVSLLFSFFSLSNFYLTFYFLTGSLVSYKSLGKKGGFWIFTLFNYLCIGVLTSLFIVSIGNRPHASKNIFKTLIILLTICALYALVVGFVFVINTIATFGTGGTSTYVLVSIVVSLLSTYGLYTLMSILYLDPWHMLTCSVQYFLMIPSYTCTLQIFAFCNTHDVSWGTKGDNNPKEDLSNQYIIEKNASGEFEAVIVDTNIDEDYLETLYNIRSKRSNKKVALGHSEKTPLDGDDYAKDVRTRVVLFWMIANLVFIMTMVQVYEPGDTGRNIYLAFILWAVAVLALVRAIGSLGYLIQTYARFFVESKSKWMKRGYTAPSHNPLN

For `C/C=C/C=C/[C@H]1Cc2cc(O)cc(O)c2O1` [Asperfuran], the “inhibition of chitin synthase” value in test [1] is “an increase in the concentration of either of these chitin synthase inhibitors causes an increase in the inhibition of chitin synthase”. As to `C[C@@H]([C@H](N)C(=O)N[C@H](C(=O)O)[C@H]1O[C@@H](n2ccc(=O)[nH]c2=O)[C@H](O)[C@@H]1O)[C@H](O)c1ccc(O)cn1` [Nikkomycin Z], the “inhibition of chitin synthase” value in test [1] is “an increase in the concentration of either of these chitin synthase inhibitors causes an increase in the inhibition of chitin synthase”. In test [2], the “relative potency as inhibitor of CaCHS1p activity” value was “more potent inhibitor of CaCHS1p activity than is Asperfuran”.
